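These data come from cells grown in 96-well plates and exposed to compound for 48 hours at five concentrations. TGI marks complete inhibition of growth.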
Legend:
Experiment in all cases: NCI anticancer screen, dose series, 48 h
786-0 renal = system: 786-0 renal
A498 renal = system: A498 renal
DU-145 prostate = system: DU-145 prostate
EKVX NSCLC = system: EKVX NSCLC
HS 578T breast = system: HS 578T breast
IGROV1 ovarian = system: IGROV1 ovarian
K-562 leukemia = system: K-562 leukemia
KM12 colon = system: KM12 colon
LOX IMVI melanoma = system: LOX IMVI melanoma
MCF7 breast = system: MCF7 breast
NCI-H226 lung = system: NCI-H226 lung
NCI-H23 lung = system: NCI-H23 lung
PC-3 prostate = system: PC-3 prostate
SF-539 CNS = system: SF-539 CNS
SNB-75 CNS = system: SNB-75 CNS
SW-620 colon = system: SW-620 colon
TK-10 renal = system: TK-10 renal
HOP-92 NSCLC = system: HOP-92 NSCLC
MDA-N = system: MDA-N

SMILES | TGI (786-0 renal) [µM] | TGI (A498 renal) [µM] | TGI (DU-145 prostate) [µM] | TGI (EKVX NSCLC) [µM] | TGI (HS 578T breast) [µM] | TGI (IGROV1 ovarian) [µM] | TGI (K-562 leukemia) [µM] | TGI (KM12 colon) [µM] | TGI (LOX IMVI melanoma) [µM] | TGI (MCF7 breast) [µM] | TGI (NCI-H226 lung) [µM] | TGI (NCI-H23 lung) [µM] | TGI (PC-3 prostate) [µM] | TGI (SF-539 CNS) [µM] | TGI (SNB-75 CNS) [µM] | TGI (SW-620 colon) [µM] | TGI (TK-10 renal) [µM] | TGI (HOP-92 NSCLC) [µM] | TGI (MDA-N) [µM]
O=C(O)Cc1ccc(Oc2nc3ccccc3nc2-c2ccccc2)cc1 | > 100 | > 100 | > 100 | 79.5 | > 100 | > 100 | > 100 | > 100 | > 100 | > 100 | > 100 | > 100 | > 100 | > 100 | > 100 | > 100 | > 100 |  | 
COc1cccc(-c2[nH]c3cc4c(cc3c(=O)c2C(=O)O)OCO4)c1 | > 100 | 91.6 | > 100 | > 100 |  | > 100 | > 100 | > 100 | > 100 | > 100 | > 100 | > 100 | > 100 | 69.4 | > 100 | > 100 |  | > 100 | 51.5
CC(=O)Nc1sccc1S(=O)(=O)c1ccc(Cl)cc1 | > 100 |  | > 100 | > 100 | > 100 | > 100 | > 100 | > 100 |  | > 100 | > 100 | > 100 | > 100 | > 100 | > 100 | > 100 | > 100 | > 100 | 
Cn1cnnc1SC(F)(F)c1nc2ccccc2o1 | > 100 | > 100 | > 100 |  |  | > 100 | > 100 | > 100 |  | > 100 | > 100 | > 100 | > 100 | > 100 | > 100 | > 100 | > 100 | > 100 | > 100
CCOC(=O)C1=C(C)N(CC(C)C)C2(O)C(OC)CC(=O)C3C(=O)N(c4ccccc4)C(=O)C132 (stereo unspecified) | > 100 | > 100 | > 100 | > 100 | > 100 | 40.2 | > 100 | 90 | > 100 | > 100 | 57.7 | > 100 | > 100 | > 100 | 75.4 | 77.9 | > 100 | > 100 | 
CC(N)=O.[Cl][Pt][Cl].[NH-]c1ccn(C2OC(CO)C(O)C2O)c(=O)n1 (stereo unspecified) | > 100 | > 100 | > 100 | > 100 | > 100 | > 100 | > 100 | > 100 | > 100 | > 100 | > 100 | > 100 | > 100 | > 100 | > 100 | > 100 | > 100 | > 100 | 
CCN(CC)C(=S)S | > 100 | > 100 |  | > 100 |  | > 100 | 30.1 | > 100 | > 100 |  | > 100 |  |  | > 100 |  | > 100 | > 100 | > 100 | 
COC(=O)[C@]1(C)[C@H]2C[C@H]3O[C@H]4[C@H](O)[C@@H](O)OC(CC(O)C(C5=CC(=O)OC5)C(C5=CC(=O)OC5)C(O)CC56CCCCC7[C@@H](C)[C@H](C[C@H]8[C@](C)(C(=O)OC)[C@H](O)CC[C@]78C)O[C@H]([C@@H](O)[C@H](O)O5)[C@H]6O)(CCCCC([C@@H]3C)[C@]2(C)CC[C@@H]1O)[C@H]4O (stereo partly specified) | 0.225 | 0.737 | 0.219 | 0.224 |  | 1.2 | 1.73 | 1.97 | 1.17 | 1.58 | 5.02 | 0.318 | 0.449 | 0.321 | 1.04 | 1.78 | 0.234 | 3.92 | 0.786
C=CCCCCCCCCC(=O)ON(Cc1ccc(O)c(OC)c1)C(=O)C(F)(F)F | > 100 | > 100 | > 100 | > 100 | > 100 | > 100 | > 100 | > 100 | > 100 | > 100 | > 100 | > 100 |  | > 100 | > 100 | > 100 | > 100 | > 100 | 
Cn1c(=O)c(C(=O)NC23CC4CC(CC(C4)C2)C3)c(O)c2ccccc21 | 30.3 |  |  | > 100 |  | 95.6 | > 100 | > 100 | > 100 |  | 48.4 | > 100 |  | > 100 | 83.8 | > 100 | 48 |  | 
